Experimental data published in PMC12589998, “Development and validation of a UHPLC-QqQ-MS/MS method for simultaneous determination of fifteen major components from Oroxyli seed extract in rat plasma and its application in the pharmacokinetic study” (Frontiers in Pharmacology, 2025).
Read-outs that look alike come from different tables or passages of the source. Each block holds one compound with its values, some of them ahead of it.

What was measured:
[1] = Stability of the analytes in rat plasma samples under storage conditions; assay type: physicochemical; conditions: n = 6
Method: The bioanalytical method validation was evaluated for specificity, linearity, sensitivity, precision and accuracy, recovery, matrix effect, and stability to ensure compliance with the U.S. Food and Drug Administration (FDA) guidance on precise quantitative analysis ([Center for Drug Evaluation and Research of the U.S., 2018]). The assessment of specificity was conducted by comparing the chromatograms obtained from blank plasma, blank plasma spiked with the target components, and samples gathered following the oral administration of OS extract. Calibration curves were constructed by plotting the ratio for the peak area of the analyte to IS versus the concentration, with 1/x^2 serving as the weighting factor. The lower limit of quantification (LLOQ) was defined as the concentration at which a signal to noise ratio of […] 10 was achievable. The evaluation of precision and accuracy involved the analysis of six QC samples, both within a single day and over 3 consecutive days. Accuracy was expressed as the relative error (RE), whereas precision was gauged via relative standard deviation (RSD). Extraction recovery was ascertained by juxtaposing the responses of analytes in extracted samples against those in samples that were spiked post-extraction. The matrix effect was scrutinized by determining the ratio of the responses of the analytes in post-extraction spiked samples to those in the mixed standard solution. The stability of the analytes in plasma samples was explored under diverse conditions: encompassing a 12-h period in an autosampler, a 4-h interval at room temperature, three cycles of freezing–thawing, and a 7-day duration at −80 °C.
The retention times of the analyte peaks were consistent with those in the spiked samples. […] The LLOQs for chrysin, chrysin-7-O-β-D-glucuronide, hispidulin, wogonoside, quercetin, quercetin-7-O-β-D-glucoside, baicalin, baicalein, acacetin, oroxin A, oroxin B, oroxylin A, oroxylin A-7-O-β-D-glucuronide, apigenin, and scutellarein were 1.0, 2.0, 1.0, 0.3, 1.0, 0.1, 9.0, 6.0, 0.3, 6.0, 4.0, 1.0, 2.0, 0.5, and 0.3 ng/mL, respectively. In Supplementary Table S2, the RE for accuracy is between −13.77% and 12.55%, and the RSD for precision is below 14.55% (both intra- and inter-day). […] The matrix effect varied from 60.15% to 115.53%, with RSD values below 10.54%. In Supplementary Table S4, the RSD values for stability of the analytes are found to be lower than 13.98%, meaning that these components were stable under the following conditions: encompassing a 12-h period in an autosampler, a 4-h interval at room temperature, three cycles of freezing and thawing, and a 7-day duration at −80 °C.

[2] = Pharmacokinetic study in rats after oral administration of OS extract (UHPLC-QqQ-MS/MS of plasma); assay type: in vivo, rat; conditions: for concentration at 0.5 h / AUC(0-t) / AUC(0-inf) / Cmax / half-life / Tmax: male
Method: The UHPLC-QqQ-MS/MS system consisted of a 1290 UHPLC and a 6470 mass spectrometer (Agilent Technologies). Chromatographic separation was realized on utilizing an ACQUITY UPLC BEH C18 column (2.1 × 100 mm, 1.7 μm) maintained at 35 °C. The mobile phase consisting of 0.1% formic acid in water (A) and acetonitrile (B) was utilized with the elution program set at 0 min–1 min, 5% B–30% B; 1 min–4 min, 30% B– 50% B; 4 min–8 min, and 50% B–90% B. The injection volume was 5 μL, and the flow rate was 0.3 mL/min. The mass spectrometry parameters in the negative ion mode, gas temperature, flow rate, and nebulizer pressure were 300 °C, 7 L/min, and 35 psi, respectively. The mass spectra properties of the 15 analytes and the IS are illustrated in Table 1.
To 100 μL of the plasma sample, 20 μL of methanol, 20 μL of IS solution (methylparaben, 1 μg/mL), and 5 μL of formic acid were added and vortexed for a duration of 2 min. Subsequently, the mixture underwent extraction with 800 μL of acetonitrile for 3 min. Following 10 min of centrifugation at 12,000 g, the supernatant was collected and evaporated to dryness under N2 to obtain the residue. Finally, the residue was reconstituted in 50% methanol (100 μL) and utilized for analysis.
Before initiating the study, six male SD rats underwent a 12-h fasting period, during which they were granted unrestricted access to water. Then, the rats were administered an oral dose of 3 g/kg of the OS extract, which had been dissolved in 0.5% CMC-Na aqueous solution. Blood samples, approximately 200 μL each, were collected at various time points: before administration and at 0.03, 0.08, 0.17, 0.25, 0.5, 0.75, 1, 2, 4, 6, 8, 10, 12, 24, 36, and 48 h post-administration. Following 10 min of centrifugation at 6,000 g, the resultant samples were stored at −80 °C.
The developed method was effectively applied to study the pharmacokinetics in rats following oral administration of the OS extract. […] This was likely due to their low concentrations in the OS extract. Ultimately, nine components (chrysin, chrysin-7-O-β-D-glucuronide, baicalin, baicalein, oroxin A, oroxin B, oroxylin A, oroxylin A-7-O-β-D-glucuronide, and scutellarein) were successfully fitted with pharmacokinetic parameters. The average plasma concentration–time profiles of these substances are depicted in Figure 3. […] All data were presented as the mean ± standard deviation (Mean ± SD).

[3] = SD, 3 g/kg, rat plasma collected 0.5 h after oral administration of the OS extract, read-out: Concentration printed in MRM chromatogram of plasma sample (Figure 2C)
[4] = rat plasma, oral 3 g/kg OS extract, n = 6, mean ± SD, read-out: AUC(0-t)
[5] = rat plasma, oral 3 g/kg OS extract, n = 6, mean ± SD, read-out: AUC(0-∞)
[6] = rat plasma, oral 3 g/kg OS extract, n = 6, mean ± SD, read-out: Cmax
[7] = rat plasma, oral 3 g/kg OS extract, n = 6, mean ± SD, read-out: T1/2 (converted)
[8] = rat plasma, oral 3 g/kg OS extract, n = 6, mean ± SD, read-out: Tmax
[9] = spiked concentration 1600 ng/mL
[10] = spiked concentration 6400 ng/mL

Compound: COc1ccc(-c2cc(=O)c3c(O)cc(O)cc3o2)cc1 [Acacetin, acacetin]
Measured, -80°C for 7 days ([1]; spiked concentration 2 ng/mL): 1.78 ± 0.11 ng/mL
Measured, Autosampler for 12 h ([1]; spiked concentration 2 ng/mL): 1.78 ± 0.15 ng/mL
Measured, Room temperature for 4 h ([1]; spiked concentration 2 ng/mL): 2.20 ± 0.04 ng/mL
Measured, Three freeze-thaw cycles ([1]; spiked concentration 2 ng/mL): 1.81 ± 0.06 ng/mL
Measured, -80°C for 7 days ([1]; spiked concentration 20 ng/mL): 17.78 ± 0.87 ng/mL
Measured, Autosampler for 12 h ([1]; spiked concentration 20 ng/mL): 22.01 ± 1.07 ng/mL
Measured, Room temperature for 4 h ([1]; spiked concentration 20 ng/mL): 21.25 ± 1.13 ng/mL
Measured, Three freeze-thaw cycles ([1]; spiked concentration 20 ng/mL): 17.60 ± 1.24 ng/mL
Measured, -80°C for 7 days ([1]; spiked concentration 320 ng/mL): 284.83 ± 15.85 ng/mL
Measured, Autosampler for 12 h ([1]; spiked concentration 320 ng/mL): 317.16 ± 38.69 ng/mL
Measured, Room temperature for 4 h ([1]; spiked concentration 320 ng/mL): 313.68 ± 7.94 ng/mL
Measured, Three freeze-thaw cycles ([1]; spiked concentration 320 ng/mL): 282.90 ± 15.75 ng/mL
concentration at 0.5 h [2, 3]: 8 ng/mL
Plasma levels ([2]; rat plasma after oral OS extract): too weak to obtain comprehensive pharmacokinetic curves

Compound: O=c1cc(-c2ccccc2)oc2cc(O)cc(O)c12 [Chrysin, chrysin]
Measured, -80°C for 7 days ([1]; spiked concentration 10 ng/mL): 9.25 ± 0.47 ng/mL
Measured, Autosampler for 12 h ([1]; spiked concentration 10 ng/mL): 11.26 ± 1.24 ng/mL
Measured, Room temperature for 4 h ([1]; spiked concentration 10 ng/mL): 10.87 ± 0.54 ng/mL
Measured, Three freeze-thaw cycles ([1]; spiked concentration 10 ng/mL): 9.15 ± 0.40 ng/mL
Measured, -80°C for 7 days ([1]; spiked concentration 100 ng/mL): 91.73 ± 5.32 ng/mL
Measured, Autosampler for 12 h ([1]; spiked concentration 100 ng/mL): 101.85 ± 8.18 ng/mL
Measured, Room temperature for 4 h ([1]; spiked concentration 100 ng/mL): 99.57 ± 5.36 ng/mL
Measured, Three freeze-thaw cycles ([1]; spiked concentration 100 ng/mL): 90.99 ± 3.81 ng/mL
Measured, -80°C for 7 days [1, 9]: 1539.20 ± 116.03 ng/mL
Measured, Autosampler for 12 h [1, 9]: 1687.80 ± 77.00 ng/mL
Measured, Room temperature for 4 h [1, 9]: 1601.59 ± 94.45 ng/mL
Measured, Three freeze-thaw cycles [1, 9]: 1525.21 ± 82.94 ng/mL
concentration at 0.5 h ([2]; SD, rat, in vivo, po): 73 ng/mL
AUC(0-inf) ([2]; SD, rat, in vivo, po, 3 g/kg): 589 ± 303 ng·h/mL
AUC(0-t) ([2]; SD, rat, in vivo, po, 3 g/kg): 550 ± 294 ng·h/mL
Cmax ([2]; SD, rat, in vivo, po, 3 g/kg): 519 ± 197 ng/mL
Tmax ([2]; SD, rat, in vivo, po, 3 g/kg): 0.06 ± 0.03 h
half-life ([2]; SD, rat, in vivo, po, 3 g/kg): 4.25 ± 2.01 h

Compound: O=c1cc(-c2ccccc2)oc2cc(O)c(O)c(O)c12 [Baicalein, baicalein]
Measured, -80°C for 7 days ([1]; spiked concentration 40 ng/mL): 38.12 ± 3.24 ng/mL
Measured, Autosampler for 12 h ([1]; spiked concentration 40 ng/mL): 39.31 ± 4.16 ng/mL
Measured, Room temperature for 4 h ([1]; spiked concentration 40 ng/mL): 40.41 ± 3.19 ng/mL
Measured, Three freeze-thaw cycles ([1]; spiked concentration 40 ng/mL): 38.12 ± 3.24 ng/mL
Measured, -80°C for 7 days ([1]; spiked concentration 400 ng/mL): 409.67 ± 26.03 ng/mL
Measured, Autosampler for 12 h ([1]; spiked concentration 400 ng/mL): 393.06 ± 21.11 ng/mL
Measured, Room temperature for 4 h ([1]; spiked concentration 400 ng/mL): 389.14 ± 35.85 ng/mL
Measured, Three freeze-thaw cycles ([1]; spiked concentration 400 ng/mL): 409.67 ± 26.03 ng/mL
Measured, -80°C for 7 days [1, 10]: 5967.02 ± 503.93 ng/mL
Measured, Autosampler for 12 h [1, 10]: 6241.15 ± 404.47 ng/mL
Measured, Room temperature for 4 h [1, 10]: 6247.34 ± 389.56 ng/mL
Measured, Three freeze-thaw cycles [1, 10]: 5967.02 ± 503.93 ng/mL
concentration at 0.5 h [2, 3]: 400 ng/mL
AUC(0-t) [2, 4]: 4200 ng·h/mL
AUC(0-inf) [2, 5]: 4600 ng·h/mL
Cmax [2, 6]: 2930 ng/mL
half-life [2, 7]: 2.99 ± 1.18 h
Tmax [2, 8]: 0.06 ± 0.03 h

Results, then the compound that gave them:

Measured, -80°C for 7 days ([1]; spiked concentration 2 ng/mL): 1.77 ± 0.12 ng/mL
Measured, Autosampler for 12 h ([1]; spiked concentration 2 ng/mL): 2.05 ± 0.22 ng/mL
Measured, Room temperature for 4 h ([1]; spiked concentration 2 ng/mL): 1.84 ± 0.17 ng/mL
Measured, Three freeze-thaw cycles ([1]; spiked concentration 2 ng/mL): 1.78 ± 0.13 ng/mL
Measured, -80°C for 7 days ([1]; spiked concentration 20 ng/mL): 19.80 ± 0.92 ng/mL
Measured, Autosampler for 12 h ([1]; spiked concentration 20 ng/mL): 19.68 ± 1.68 ng/mL
Measured, Room temperature for 4 h ([1]; spiked concentration 20 ng/mL): 18.12 ± 0.51 ng/mL
Measured, Three freeze-thaw cycles ([1]; spiked concentration 20 ng/mL): 21.33 ± 0.83 ng/mL
Measured, -80°C for 7 days ([1]; spiked concentration 320 ng/mL): 296.10 ± 18.07 ng/mL
Measured, Autosampler for 12 h ([1]; spiked concentration 320 ng/mL): 327.40 ± 16.47 ng/mL
Measured, Room temperature for 4 h ([1]; spiked concentration 320 ng/mL): 316.24 ± 35.36 ng/mL
Measured, Three freeze-thaw cycles ([1]; spiked concentration 320 ng/mL): 292.73 ± 17.80 ng/mL
concentration at 0.5 h [2, 3]: 14 ng/mL
AUC(0-t) [2, 4]: 89.4 ± 18.5 ng·h/mL
AUC(0-inf) [2, 5]: 95.6 ± 17.5 ng·h/mL
Cmax [2, 6]: 47.8 ± 15.1 ng/mL
half-life [2, 7]: 4.07 ± 1.61 h
Tmax [2, 8]: 0.1 ± 0.04 h
Compound: O=c1cc(-c2ccc(O)cc2)oc2cc(O)c(O)c(O)c12 [Scutellarein, scutellarein]

Measured, -80°C for 7 days ([1]; spiked concentration 10 ng/mL): 10.45 ± 0.29 ng/mL
Measured, Autosampler for 12 h ([1]; spiked concentration 10 ng/mL): 10.51 ± 1.15 ng/mL
Measured, Room temperature for 4 h ([1]; spiked concentration 10 ng/mL): 10.16 ± 0.90 ng/mL
Measured, Three freeze-thaw cycles ([1]; spiked concentration 10 ng/mL): 10.69 ± 0.70 ng/mL
Measured, -80°C for 7 days ([1]; spiked concentration 100 ng/mL): 92.00 ± 7.39 ng/mL
Measured, Autosampler for 12 h ([1]; spiked concentration 100 ng/mL): 90.43 ± 9.04 ng/mL
Measured, Room temperature for 4 h ([1]; spiked concentration 100 ng/mL): 92.23 ± 5.62 ng/mL
Measured, Three freeze-thaw cycles ([1]; spiked concentration 100 ng/mL): 88.86 ± 4.67 ng/mL
Measured, -80°C for 7 days [1, 9]: 1720.89 ± 130.14 ng/mL
Measured, Autosampler for 12 h [1, 9]: 1797.17 ± 87.55 ng/mL
Measured, Room temperature for 4 h [1, 9]: 1790.22 ± 78.72 ng/mL
Measured, Three freeze-thaw cycles [1, 9]: 1733.57 ± 149.41 ng/mL
concentration at 0.5 h ([2]; SD, rat, in vivo, po): 165 ng/mL
AUC(0-inf) ([2]; SD, rat, in vivo, po, 3 g/kg): 3010 ng·h/mL
AUC(0-t) ([2]; SD, rat, in vivo, po, 3 g/kg): 2840 ng·h/mL
Cmax ([2]; SD, rat, in vivo, po, 3 g/kg): 512 ± 179 ng/mL
Tmax ([2]; SD, rat, in vivo, po, 3 g/kg): 0.25 ± 0.00 h
half-life ([2]; SD, rat, in vivo, po, 3 g/kg): 7.7 ± 0.97 h
Compound: COc1c(O)cc2oc(-c3ccccc3)cc(=O)c2c1O [Oroxylin A, oroxylin A]
